Measurements reported in patent publication US10457649B2, “Polymorphs of a mPGES-1 inhibiting triazolone compound” (Glenmark Pharmaceuticals S.A., priority 2015, dated 2019).

Assay: Stability studies of compound of formula II on storage; degradation products estimated by HPLC
Type: physicochemical
Text: Apparatus: A High Performance Liquid Chromatograph equipped with quaternary gradient pumps, variable wavelength UV detector attached with data recorder and Integrator software or equivalent.
Column: Zorbax Eclipse XDB C-8, 150 mm×4.6 mm, 5μ or equivalent
Mobile phase: A: Buffer B: Methanol (Gradient Program)
Buffer: Water, pH adjusted to 2.2 with trifluoroacetic acid solution. Filter through 0.45μ filter paper and degas.
Diluent: Water: Methanol (20:80 v/v)
Detection wavelength: UV 270 nm
Column temperature: 25° C.
25 mg of the compound was weighed and transferred into a 50 mL volumetric flask. Methanol (5 ml) was added and it was sonicated to dissolve. The diluent was added to make up the solution to the mark of the flask.
The equal volumes of blank (diluent) and test solution were separately injected into the High Performance liquid chromatography. The responses were recorded eliminating the peaks due to blank and the chromatographic purity by area was calculated by normalization method.
The compound of formula II was stored under conditions as shown in below table and a total amount of degradation products (related substances) as well as single maximum impurity formed during storage was estimated by HPLC. The material was packed in inner clear polythene bag under nitrogen lined with black polythene bag, covered with triple laminated aluminium bag placed in HDPE drum and subjected to the conditions mentioned in the table 5.
The result of stability studies of compound of formula (II) carried out under the conditions mentioned in the table 5 is presented in tables 6 and 7.

[1] = storage condition 1: 25 ± 2° C., 60 ± 5% RH, storage period 0 months
[2] = storage condition 1: 25 ± 2° C., 60 ± 5% RH, storage period 3 months
[3] = storage condition 1: 25 ± 2° C., 60 ± 5% RH, storage period 6 months
[4] = storage condition 2: 40 ± 2° C., 75 ± 5% RH, storage period 0 months
[5] = storage condition 2: 40 ± 2° C., 75 ± 5% RH, storage period 1 month
[6] = storage condition 2: 40 ± 2° C., 75 ± 5% RH, storage period 2 months
[7] = storage condition 2: 40 ± 2° C., 75 ± 5% RH, storage period 3 months
[8] = storage condition 2: 40 ± 2° C., 75 ± 5% RH, storage period 6 months

CC(C)(C)C(=O)NCc1ccc(Cl)c(-c2nn(-c3ccc(C(F)(F)F)cc3)c(=O)[nH]2)c1 [compound of formula II, N-(4-chloro-3-(5-oxo-1-(4-(trifluoromethyl)phenyl)-4,5-dihydro-1H-1,2,4-triazol-3-yl)benzyl)pivalamide]
Related substances [1]: 0.13%
Single max. impurity [1]: 0.13%
Related substances [2]: 0.14%
Single max. impurity [2]: 0.14%
Related substances [3]: 0.14%
Single max. impurity [3]: 0.14%
Related substances [4]: 0.13%
Single max. impurity [4]: 0.13%
Related substances [5]: 0.14%
Single max. impurity [5]: 0.14%
Related substances [6]: 0.13%
Single max. impurity [6]: 0.13%
Related substances [7]: 0.14%
Single max. impurity [7]: 0.14%
Related substances [8]: 0.13%
Single max. impurity [8]: 0.13%
